In this data set the target is ALPK1 (Homo sapiens, UniProt Q96QP1). Kind of data set: IL8 secretion in HEK293 cells (IL8 ELISA) as indicator of ALPK1 activation. Particulars: for IL8 secretion in HEK293 cells: 4 hours. For orientation: An ELISA detects its analyte on a solid surface through an enzyme-linked reagent.
ALPK1, sequence (Q96QP1 whole entry): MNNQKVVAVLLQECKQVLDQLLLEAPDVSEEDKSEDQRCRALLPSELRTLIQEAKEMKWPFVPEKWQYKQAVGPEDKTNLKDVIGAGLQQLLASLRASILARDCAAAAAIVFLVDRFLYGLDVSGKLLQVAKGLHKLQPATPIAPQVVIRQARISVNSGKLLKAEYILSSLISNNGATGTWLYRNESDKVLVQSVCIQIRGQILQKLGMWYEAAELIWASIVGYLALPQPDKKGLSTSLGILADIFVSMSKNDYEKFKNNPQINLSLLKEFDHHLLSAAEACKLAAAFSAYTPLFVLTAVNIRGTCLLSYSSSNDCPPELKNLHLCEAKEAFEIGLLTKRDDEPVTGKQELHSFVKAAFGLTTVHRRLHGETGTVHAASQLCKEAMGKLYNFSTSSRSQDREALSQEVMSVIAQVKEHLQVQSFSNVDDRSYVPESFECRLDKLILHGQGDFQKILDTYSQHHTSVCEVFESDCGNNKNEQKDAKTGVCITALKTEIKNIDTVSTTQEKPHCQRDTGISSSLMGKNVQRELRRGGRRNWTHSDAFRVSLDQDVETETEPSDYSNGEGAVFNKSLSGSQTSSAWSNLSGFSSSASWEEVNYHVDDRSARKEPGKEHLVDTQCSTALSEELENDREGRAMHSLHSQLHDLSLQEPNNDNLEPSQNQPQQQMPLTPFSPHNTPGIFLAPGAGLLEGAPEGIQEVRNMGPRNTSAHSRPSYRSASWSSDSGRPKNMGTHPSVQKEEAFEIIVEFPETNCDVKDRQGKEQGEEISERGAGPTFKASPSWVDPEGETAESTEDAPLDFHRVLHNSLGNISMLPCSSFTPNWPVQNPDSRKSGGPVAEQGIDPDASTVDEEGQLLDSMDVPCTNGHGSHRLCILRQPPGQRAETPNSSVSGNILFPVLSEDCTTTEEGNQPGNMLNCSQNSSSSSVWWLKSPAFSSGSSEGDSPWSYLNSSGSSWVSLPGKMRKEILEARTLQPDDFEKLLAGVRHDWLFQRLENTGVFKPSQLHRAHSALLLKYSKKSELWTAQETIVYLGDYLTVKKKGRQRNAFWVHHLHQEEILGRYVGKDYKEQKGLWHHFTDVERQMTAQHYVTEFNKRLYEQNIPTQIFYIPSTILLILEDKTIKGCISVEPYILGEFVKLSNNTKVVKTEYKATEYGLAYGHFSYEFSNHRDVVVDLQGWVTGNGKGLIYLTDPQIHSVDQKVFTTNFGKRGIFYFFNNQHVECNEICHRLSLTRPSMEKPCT

Description: We pre-mixed H1b-ADP with phosphatase inhibitor sodium orthovanadate (Na3VO4) before incubation with FBS.
In these experiments, serial dilutions of the compounds were added to the tissue culture media of HEK293 cells with (FIG. 27B, FIG. 28B, FIG. 29B) or without (FIG. 26, FIG. 27A, FIG. 28A, FIG. 29A) 10% FBS, as indicated in the figures. After 4 hours, the cell supernatant was collected and analyzed for IL8 concentration using IL8 ELISA (BD) as an indicator of ALPK1 activation.

`CC(=O)OC[C@H](F)[C@H]1O[C@@H](OP(=O)(O)OP(=O)(O)OC[C@H]2O[C@@H](n3cnc4c(N)ncnc43)[C@H](O)[C@@H]2O)[C@@H](OC(C)=O)[C@@H](OC(C)=O)[C@@H]1OC(C)=O` [Compound 3, (2S,3S,4S,5S,6S)-2-((S)-2-acetoxy-1-fluoroethyl)-6-(((((((2R,3S,4R,5R)-5-(6-amino-9H-purin-9-yl)-3,4-dihydroxytetrahydrofuran-2-yl)methoxy)(hydroxy)phosphoryl)oxy)(hydroxy)phosphoryl)oxy)tetrahydro-2H-pyran-3,4,5-triyl triacetate]: the “IL8 secretion in HEK293 cells” value (with 10% FBS) was “activate IL8 secretion” and the “IL8 secretion in HEK293 cells” value (without FBS) is “activate IL8 secretion”.
Turning to `CC(=O)OC[C@H]1O[C@@H](OP(=O)(O)OP(=O)(O)OC[C@H]2O[C@@H](n3cnc4c(N)ncnc43)[C@H](O)[C@@H]2O)[C@@H](OC(C)=O)[C@@H](OC(C)=O)[C@@H]1OC(C)=O` [Compound 5, (2R,3R,4S,5S,6S)-2-(acetoxymethyl)-6-(((((((2R,3S,4R,5R)-5-(6-amino-9H-purin-9-yl)-3,4-dihydroxytetrahydrofuran-2-yl)methoxy)(hydroxy)phosphoryl)oxy)(hydroxy)phosphoryl)oxy)tetrahydro-2H-pyran-3,4,5-triyl triacetate], the “IL8 secretion in HEK293 cells” value (with 10% FBS) is listed as “increased IL8 secretion” and the “IL8 secretion in HEK293 cells” value (without FBS) is recorded as “increased IL8 secretion”.
Consider `CO[C@@H]1[C@H](OC)[C@@H](COP(=O)(O)OP(=O)(O)O[C@@H]2O[C@H]([C@@H](COC(C)=O)OC(C)=O)[C@@H](OC(C)=O)[C@H](OC(C)=O)[C@@H]2OC(C)=O)O[C@H]1n1cnc2c(N)ncnc21` [Compound 13, (2S,3S,4S,5R,6R)-2-(((((((2R,3R,4R,5R)-5-(6-amino-9H-purin-9-yl)-3,4-dimethoxytetrahydrofuran-2-yl)methoxy)(hydroxy)phosphoryl)oxy)(hydroxy)phosphoryl)oxy)-6-((R)-1,2-diacetoxyethyl)tetrahydro-2H-pyran-3,4,5-triyl triacetate], for which the “IL8 secretion in HEK293 cells” value is given as “increased IL8 secretion” (with 10% FBS) and “increased IL8 secretion” (without FBS).
Take `COC1C(OC)[C@@H](COP(=O)(O)OP(=O)(O)O[C@@H]2OC([C@H](O)CO)[C@@H](O)C(O)C2O)O[C@H]1n1cnc2c(N)ncnc21` (stereo partly drawn) [Compound 14, Adenosine-2′3′-dimethoxy-5′-(D-glycero-β-D-mannoheptopyranosyl) diphosphate]: the “IL8 secretion in HEK293 cells” value is, setting by setting: (with 10% FBS) “increased IL8 secretion”; (without FBS) “increased IL8 secretion”.
Turning to `CC(=O)OC[C@@H](OC(C)=O)[C@H]1O[C@@H](OP(=O)(O)OP(O)(=S)OC[C@H]2O[C@@H](n3cnc4c(N)ncnc43)[C@H](O)[C@@H]2O)[C@@H](OC(C)=O)[C@@H](OC(C)=O)[C@@H]1OC(C)=O` (stereo partly drawn) [Compound 15, (2S,3S,4S,5R,6R)-2-(((((((2R,3S,4R,5R)-5-(6-amino-9H-purin-9-yl)-3,4-dihydroxytetrahydrofuran-2-yl)methoxy)(hydroxy)phosphorothioyl)oxy)(hydroxy)phosphoryl)oxy)-6-((R)-1,2-diacetoxyethyl)tetrahydro-2H-pyran-3,4,5-triyl triacetate], the “resistance to serum degradation” value (compare without FBS and with 10% FBS (FIG. 27A and FIG. 27B)) is given as “unexpected resistance to serum degradation”. For the same molecule, the “IL8 secretion in HEK293 cells” value runs as follows: (with 10% FBS) “activate IL8 secretion”; (without FBS) “activate IL8 secretion”.
With `Nc1ncnc2c1ncn2[C@@H]1O[C@H](COP(O)(=S)OP(=O)(O)O[C@@H]2OC([C@H](O)CO)[C@@H](O)C(O)C2O)C(O)C1O` (some centres unmarked) [Compound 16], the “IL8 secretion in HEK293 cells” value reads like this: (with 10% FBS) “increased IL8 secretion”; (without FBS) “increased IL8 secretion”.
For the molecule `CC(=O)OC[C@@H](OC(C)=O)[C@H]1O[C@@H](OP(=O)(O)OP(=O)(O)OC[C@H]2O[C@@H](n3cnc4c(N)ncnc43)[C@H](O)[C@H]2F)[C@@H](OC(C)=O)[C@@H](OC(C)=O)[C@@H]1OC(C)=O` [Compound 17, (2S,3S,4S,5R,6R)-2-(((((((2R,3R,4S,5R)-5-(6-amino-9H-purin-9-yl)-3-fluoro-4-hydroxytetrahydrofuran-2-yl)methoxy)(hydroxy)phosphoryl)oxy)(hydroxy)phosphoryl)oxy)-6-((R)-1,2-diacetoxyethyl)tetrahydro-2H-pyran-3,4,5-triyl triacetate], the “IL8 secretion in HEK293 cells” value is, setting by setting: (with 10% FBS) “increased IL8 secretion”; (without FBS) “increased IL8 secretion”.
As for `CC(=O)OC[C@@H](OC(C)=O)[C@H]1O[C@@H](OP(=O)(O)OP(=O)(O)OC[C@@]2(F)O[C@@H](n3cnc4c(N)ncnc43)[C@@H]3OC(C)(C)O[C@@H]32)[C@@H](OC(C)=O)[C@@H](OC(C)=O)[C@@H]1OC(C)=O` [Compound 19, (2S,3S,4S,5R,6R)-2-(((((((3aS,4S,6R,6aR)-6-(6-amino-9H-purin-9-yl)-4-fluoro-2,2-dimethyltetrahydrofuro[3,4-d][1,3]dioxol-4-yl)methoxy)(hydroxy)phosphoryl)oxy)(hydroxy)phosphoryl)oxy)-6-((R)-1,2-diacetoxyethyl)tetrahydro-2H-pyran-3,4,5-triyl triacetate], the “IL8 secretion in HEK293 cells” value runs as follows: (with 10% FBS) “activate IL8 secretion”; (without FBS) “activate IL8 secretion”.
Take `CC(=O)OC[C@@H](OC(C)=O)[C@H]1O[C@@H](OP(=O)(O)OP(=O)(O)OC[C@@]2(F)O[C@@H](n3cnc4c(N)ncnc43)[C@H](O)[C@@H]2O)[C@@H](OC(C)=O)[C@@H](OC(C)=O)[C@@H]1OC(C)=O` [Compound 20, (2S,3S,4S,5R,6R)-2-(((((((2S,3S,4R,5R)-5-(6-amino-9H-purin-9-yl)-2-fluoro-3,4-dihydroxytetrahydrofuran-2-yl)methoxy)(hydroxy)phosphoryl)oxy)(hydroxy)phosphoryl)oxy)-6-((R)-1,2-diacetoxyethyl)tetrahydro-2H-pyran-3,4,5-triyl triacetate]: the “IL8 secretion in HEK293 cells” value by setting is: (with 10% FBS) “activate IL8 secretion”; (without FBS) “activate IL8 secretion”.
`CC(=O)OC[C@H](OC(C)=O)[C@H]1O[C@@H](OP(=O)(O)OP(=O)(O)OC[C@H]2O[C@@H](n3cnc4c(N)ncnc43)[C@H](O)[C@@H]2O)[C@@H](OC(C)=O)[C@@H](OC(C)=O)[C@@H]1OC(C)=O` [Compound 21, (2S,3S,4S,5R,6R)-2-(((((((2R,3S,4R,5R)-5-(6-amino-9H-purin-9-yl)-3,4-dihydroxytetrahydrofuran-2-yl)methoxy)(hydroxy)phosphoryl)oxy)(hydroxy)phosphoryl)oxy)-6-((S)-1,2-diacetoxyethyl)tetrahydro-2H-pyran-3,4,5-triyl triacetate]: the “IL8 secretion in HEK293 cells” value is “increased IL8 secretion” (with 10% FBS) and “increased IL8 secretion” (without FBS).
On to `Nc1ncnc2c1ncn2[C@@H]1O[C@H](COP(=O)(O)OP(=O)(O)O[C@@H]2OC([C@@H](O)CO)[C@@H](O)C(O)C2O)C(O)C1O` (stereo partly drawn) [Compound 22, Adenosine-5′-(L-glycero-β-D-mannoheptopyranosyl) diphosphate], for which the “IL8 secretion in HEK293 cells” value is, setting by setting: (with 10% FBS) “increased IL8 secretion”; (without FBS) “increased IL8 secretion”.

These data come from patent US11186606B2, “Compositions and methods of modulating the immune response by activating alpha protein kinase 1” (Shanghai Yao Yuan Biotechnology Co., Ltd., priority 2017, dated 2021).
